The results in this text go back to patent US12642812B2, “Nicotinamide mononucleotide derivatives and use thereof in the treatment and prevention of an antineoplastic-induced toxicity” (NUVAMID SA, priority 2020, dated 2026).

What all share (type): in vivo, mice
In data set [1] the test system is doxorubicin-induced cardiotoxicity. Nature of the data set: Body weight in doxorubicin-induced cardiotoxicity model. As to conditions: for body weight loss observed after doxorubicin administration (effect of treatment): DOX 20 mg/kg i.p. mice, compound 180 mg/kg i.p. daily, D5 vs before injection, vs DOX vehicle.
Protocol: The treatment with compounds 001, 010 and 011 was initiated from 5 days before DOX injection once per day from D5 to D0.
The bodyweight was assessed at inclusion and at D5.
For data set [2] the test system is unchanged. The data set is described as follows: Assessment of cardiac function by echocardiography in doxorubicin-induced cardiotoxicity model. As to conditions: 5 days after DOX; for heart rate (effect of treatment, in words): vs DOX vehicle; for end-systolic LV volume (effect of treatment): vs doxorubicin vehicle group; for anterior and posterior wall thickness in systole (effect of treatment): compound 180 mg/kg. As for the experimental part:
Cardiotoxicity was induced by a single intraperitoneal injection of doxorubicin (DOX) at 20 mg/kg. Doxorubicin was prepared at 2 mg/mL and volume of administration was 10 mL/Kg. • Group 1: Vehicle (i.p.) • Group 2: […] Doxorubicin (20 mg/kg)+compound 001 180 mg/kg • Group 4: Doxorubicin (20 mg/kg)+compound 010 180 mg/kg • Group 5: Doxorubicin (20 mg/kg)+compound 011 180 mg/kg Group Repartition: […] Mice were i.p treated with compounds 001, 010 and 01130 min before DOX injection. Mice were i.p treated with compounds 001,010 and 011 for the duration of the experiment (D0 to D5) once per day. Last injection occurred 24 hours before sacrifice. Echocardiography (ECG) was performed 5 days after doxorubicin injection in anesthetized (isoflurane 1.5-2%) animals with non-invasive two-dimensional echocardiography (VF16-5 probe, Siemens, Acuson NX3 Elite). After removing hairs on the chest, numeric images of the heart will be obtained in both parasternal long-axis and short axis views. The following cardiac function were assessed during ECG: • Left ventricle (LV) end-systolic and end-diastolic inner diameter, • LV end-systolic and end-diastolic volume, • Fractional shortening; • Ejection fraction; • Heart Rate; and • Anterior and posterior wall thickness in Diastole and in systole.

Data set [3] has the same test system. The data set is described as follows: Survival rate in doxorubicin-induced cardiotoxicity model. As to conditions: for survival rate (% of survival): DOX 20 mg/kg i.p. mice, compound 180 mg/kg i.p. once daily from 5 days before DOX to D5, 5 days after DOX. As for the experimental part: The aim of the present study was to evaluate, the effects of i.p. administration of compounds 001, 010 and 011 at 180 mg/kg in the progression of a cardiotoxicity induced by doxorubicin.
(§1) Cardiotoxicity was induced by a single intraperitoneal injection of doxorubicin (DOX) at 20 mg/kg. Doxorubicin was prepared at 2 mg/mL and volume of administration was 10 mL/Kg.
Mortality rate was followed-up all along the experimental phase.
(§2) • Group 1: Vehicle (i.p.) • Group 2: Doxorubicin (20 mg/kg) • Group 3: Doxorubicin (20 mg/kg)+compound 001 180 mg/kg • Group 4: Doxorubicin (20 mg/kg)+compound 010 180 mg/kg • Group 5: Doxorubicin (20 mg/kg)+compound 011 180 mg/kg Group Repartition:
At D0, mice received DOX (20 mg/kg) by intraperitoneal route.
(§3) The treatment with compounds 001, 010 and 011 was initiated from 5 days before DOX injection once per day from […] to D0.
(§4) Mice were i.p treated with compounds 001, 010 and 01130 min before DOX injection.
(§5) Mice were i.p treated with compounds 001,010 and 011 for the duration of the experiment (D0 to D5) once per day. Last injection occurred 24 hours before sacrifice.
The survival rate was recorded every day until the end of the experiment (D5).

The test system is the same in data set [4]. The data set is described as follows: Plasmatic LDH biomarker in doxorubicin-induced cardiotoxicity model. As to conditions: plasma, 5 days after DOX. As for the experimental part: as §1, §2, §3, §4, §5
Retro-orbital blood collection was performed at the inclusion and at 1 and 5 days after the induction with DOX to assess biomarkers (especially LDH).
DOX mice were treated with compounds 001,010 and 011 (180 mg/kg) or vehicle. Plasmatic LDH (lactate dehydrogenase) was measured 5 days after doxorubicin injection.

For data set [5] the test system is unchanged. Nature of the data set: Heart weight in doxorubicin-induced cardiotoxicity model. As to conditions: 5 days after DOX; for heart weight (effect of treatment): DOX 20 mg/kg mice, compound 180 mg/kg, vs DOX vehicle mice. As for the experimental part:
as §1, §2, §3, §4, §5
At D5, heart and tibia were collected.

Where [6] appears, read: DOX 20 mg/kg mice, compound 180 mg/kg i.p. daily.
Where [7] appears, read: doxorubicin 20 mg/kg + vehicle vs control group.
The mark [8] stands for this setting: doxorubicin-treated mice (20 mg/kg, vehicle) vs control.

Regarding `NC(=O)c1ccc[n+]([C@@H]2O[C@H](COP(=O)([O-])O)[C@@H](O)[C@H]2O)c1` [Compound 001, nicotinamide mononucleotide], the “body weight loss observed after doxorubicin administration (effect of treatment)” value (“body weight loss observed” for short) in data set [1] was “significantly decreased”. In addition, in data set [2] (setting [6]), the ejection fraction was 56.9±0.6%; the fractional shortening entry is “around 38%”; the “heart rate (effect of treatment, in words)” value is “increased”; the “end-systolic LV volume (effect of treatment)” value was “reduced”. Moreover, in data set [2] (DOX 20 mg/kg mice), the “anterior and posterior wall thickness in systole (effect of treatment)” value is “non-significant increases”. Besides, the “survival rate (% of survival)” value in data set [3] came out at 78%. The “decrease of LDH release / reduction in LDH levels” value in data set [4] (DOX 20 mg/kg mice, compound 180 mg/kg, vs DOX vehicle) was “more than 35%”.

Regarding `NC(=O)c1ccc[n+]([C@@H]2O[C@H](COP(=O)([O-])OP(=O)([O-])OC[C@H]3O[C@H]([n+]4cccc(C(N)=O)c4)[C@H](O)[C@@H]3O)[C@@H](O)[C@H]2O)c1` [Compound 010], in data set [5], the “heart weight (effect of treatment)” value is given as “tended to increase”. In data set [1], the “body weight loss observed” value is “significantly decreased”. Besides, in data set [2] (setting [6]), the ejection fraction was 60.0±0.6%; the fractional shortening entry is reported as “around 38%”; the heart rate is 470.1±18.8 bpm; the “heart rate (effect of treatment, in words)” value was “increased”. For the same compound, in data set [2] (setting [6]), the “end-systolic LV volume (effect of treatment)” value is on record as “reduced”. The “anterior and posterior wall thickness in systole (effect of treatment)” value in data set [2] (DOX 20 mg/kg mice) was “non-significant increases”. Besides, the “survival rate (% of survival)” value in data set [3] is 98%.

Turning to `NC(=O)c1ccc[n+]([C@H]2O[C@H](COP(=O)([O-])OP(=O)([O-])OC[C@H]3O[C@H]([n+]4cccc(C(N)=O)c4)[C@H](O)[C@@H]3O)[C@@H](O)[C@H]2O)c1` [Compound 011], the “heart weight (effect of treatment)” value in data set [5] was “tended to increase”. Besides, in data set [1], the “body weight loss observed” value is “significantly decreased”. Further, in data set [2] (setting [6]), the ejection fraction turned out to be 58.2±0.5%; the fractional shortening result is recorded as “around 38%”; the “heart rate (effect of treatment, in words)” value was “increased”; the “end-systolic LV volume (effect of treatment)” value is given as “reduced”. Moreover, the “anterior and posterior wall thickness in systole (effect of treatment)” value in data set [2] (DOX 20 mg/kg mice) was “non-significant increases”. The “survival rate (% of survival)” value in data set [3] was found to be 100%.

Take `COc1cccc2c1C(=O)c1c(O)c3c(c(O)c1C2=O)C[C@@](O)(C(=O)CO)C[C@@H]3O[C@H]1C[C@H](N)[C@H](O)[C@H](C)O1` [doxorubicin, reference compound]: the heart weight in data set [5] (doxorubicin 20 mg/kg + vehicle) is 102.3 ± 4.6 mg. In data set [1] (doxorubicin 20 mg/kg i.p., surviving vehicle-treated mice, day of sacrifice minus before injection), the “decrease in body weight (body weight gain)” value is -4.2 ± 0.5 g. For the same compound, in data set [2] (setting [7]), the “end-diastolic LV volume” value is given as “without significative difference” and the “end-systolic LV volume” value is reported as “significant increase”. Also, in data set [2] (doxorubicin 20 mg/kg + vehicle vs control), the “anterior and posterior wall thickness in systole” value was “significantly decreased”. Moreover, the heart rate in data set [2] (doxorubicin 20 mg/kg + vehicle) is given as 365.1±23.9 bpm. This compound came in with an ejection fraction in data set [2] (doxorubicin 20 mg/kg vehicle group) of 38.9±1.3%. In data set [2] (setting [8]), the “LV internal diameter in diastole” value was “without significative difference” and the “LV internal diameter in systole” value is given as “significantly increased”. This compound showed a fractional shortening in data set [2] (doxorubicin-treated mice (20 mg/kg, vehicle)) of 33.5±0.4%. Further, the “mice died before the end of experimental protocol” value in data set [3] (doxorubicin 20 mg/kg i.p. mice treated with vehicle, up to D5) was about 50%. Moreover, the “increase in LDH release compared to control group” value in data set [4] (doxorubicin 20 mg/kg + vehicle) is on record as “more than 3 fold”.
